Assay [1] concerns the target T1, FADS1 (Mus musculus, UniProt Q920L1).
T1 construct: Liver from ^13C5-DGLA dosed DIO mice was collected for pharmacodynamic (PD) analysis; from tissue; host or cells: living DIO C57Bl/6 mice; 13C5-DGLA to 13C5-AA conversion read in liver (A4) or blood plasma (A5)
T1 sequence (Q920L1 1-447): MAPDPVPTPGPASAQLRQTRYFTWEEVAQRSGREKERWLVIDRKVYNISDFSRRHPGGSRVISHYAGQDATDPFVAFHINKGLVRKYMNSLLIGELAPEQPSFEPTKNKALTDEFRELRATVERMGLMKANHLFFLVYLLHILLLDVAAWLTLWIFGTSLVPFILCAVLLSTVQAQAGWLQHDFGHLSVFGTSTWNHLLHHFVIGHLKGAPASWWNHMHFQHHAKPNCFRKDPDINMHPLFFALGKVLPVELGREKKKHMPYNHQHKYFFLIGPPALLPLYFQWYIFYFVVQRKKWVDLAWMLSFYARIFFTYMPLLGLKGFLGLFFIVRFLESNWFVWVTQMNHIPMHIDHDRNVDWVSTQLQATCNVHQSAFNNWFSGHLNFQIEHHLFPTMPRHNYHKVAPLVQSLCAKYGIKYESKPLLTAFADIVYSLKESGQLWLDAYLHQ
As to the kind of experiment: In vivo FADS1 activity measurement using the liver (13C5-DGLA to 13C5-AA conversion). The conditions noted are these: DIO mice, single oral dose 30 mg/kg, 24 hours after dosing; for inhibition at 30 mg/kg: mouse, read-out: Liver Avg % Inhibition. As to the method: Mice were then dosed by intraperitoneal injection with a solution comprising of a mixture of 0.1 ml solution of ^13C5-DGLA (2 mM in 18.42 mM Na2CO3 buffer). Necropsy were performed at 30 minutes post ^13C5-DGLA dosing. Liver from ^13C5-DGLA dosed DIO mice was collected for pharmacodynamic (PD) analysis and EDTA plasma was collected for compound exposure determination. For PD analysis, 150 mg of frozen liver tissue were premixed with ALA-D14 as an internal standard. Liver samples were homogenized and extracted twice with chloroform/methanol (2:1) solution. The organic phases for the two extractions were pooled and evaporated to dryness under nitrogen gas. The liver extract was resuspended in 200 μl 2N NaOH and saponified at 65° C. for 1 hour. After cooling to room temperature, 100 μl of formic acid was added and the mixture was subjected to two consecutive extractions with a chloroform:methanol (2:1) solution. The pooled organic phases were evaporated to dryness under nitrogen gas and resuspended in a solution containing acetonitrile and methanol at a ratio of 1:1. The extracts were then analyzed by LC/MS/MS for the following analytes: ^13C5-DGLA, ^13C5-AA, with ALA-d14 as the internal standard. The sample (20 μl) was injected onto a Poroshell 120 EC-C18 3.0×50 mm, 1.9 μm id column (Agilent, Santa Clara, CA). The analyte peak areas were quantified using the Analyst software (SCIEX, Framingham, […]). The residual in vivo FADS1 activity was calculated by taking the percent of substrate to product conversion normalized to the vehicle group to determine the percent of control (POC) and the percent inhibition relative to control (vehicle).
To determine the degree of FADS1 inhibition, the in vivo FADS1 activity as the percent of conversion calculated using the following equation: […]
The data were then normalized to the vehicle group to determine the percent of inhibition relative to control (vehicle) by the following equation: […]
To calculate the in vivo potency, dose response graphs were generated by plotting the plasma concentration of the test compound determined from the PK analysis on the abscissa, against the percent of control (POC, relative to vehicle) of the FADS1 activity for each mouse. The data points were then fitted by using the log(inhibitor) vs response nonlinear regression algorithm using GraphPad Prism (version 8.4.3, San Diego CA) to calculate the in vivo IC50 (total).
Free (unbound) IC50 and IC90 values were calculated by first calculating the unbound compound concentration in the plasma by multiplying the plasma concentration of test compound with the fraction unbound (fu) value in mouse plasma determined in the plasma protein binding study. A dose response curve was used to determine the unbound IC50 and IC90 by plotting the unbound plasma concentration of the compound on the abscissa, against the percent of control (POC, relative to vehicle) of FADS1 activity for each mouse. The data points were then fitted with a log (inhibitor) versus response nonlinear regression algorithm using GraphPad Prism (version 8.4.3, San Diego, CA) to calculate the in vivo IC50 (Free).

In assay [2] the target is T1, FADS1. Kind of assay: In vivo FADS1 activity measurement using blood plasma (13C5-DGLA to 13C5-AA conversion). As to conditions: for Plasma Avg % Conversion / inhibition at 30 mg/kg: DIO mice, single oral dose 30 mg/kg, 24 hours after dosing. The protocol: FADS1 activity in the presence of Compounds B-E was also measured using blood plasma (in addition to using the liver). The above procedures were perforned to measure the in vivo activity of FADS1 using the liver. The following general procedures were used to measure FADS1 activity using blood plasma. Diet-induced obese (DIO) mice that were on 12 weeks of high fat diet were used to determine the pharmacokinetic (PK) and pharmacodynamic (PD) properties of test compounds. To determine the target coverage at 24 hours after dosing with a test compound (e.g., Compounds B-E, shown below), mice were IP dosed with 0.1 ml solution of ^13C5-DGLA (2 mM in 18.42 mM Na2CO3 buffer). Necropsy were performed at 30 minutes post ^13C5-DGLA dosing. EDTA Plasma was collected for PK and PD analysis.
For PD analysis, 50 μl of plasma or standards (pooled untreated mouse plasma with ^13C5-DGLA and ^13C5-AA added at concentration of 4.57 nM to 10 uM) were mixed with 10 μl of 90% methanol and 10 μl of 50 μg/mL of ALA-D14 as an internal standard (100 μM alpha-linolenic acid-d14 (ALA-d14, Cayman Chemical)) in a 96 well plate. 490 μl of chloroform:methanol (2:1) were added to each well. Plates were plated on a shaker for 5 min prior to adding 66.5 μl water. The plates were shaken for another 5 minutes, followed by centrifugation at 2000 RPM for 5 minutes. The bottom organic layer was transferred to a clean 96 well plate. 333 ul of chloroform:methanol (2:1) were added to the to the remaining liquid phase in the original plate. After 5 min of shaking, the plate was centrifuged at 2000 RPM for 5 minutes. The bottom layer was collected and combined with the first bottom layer. The combined layers were evaporated to dryness under a constant stream of nitrogen gas. After the plate has been dried, 100 μl of 2N NaOH was added to the mixture for subsequent saponification at 65° C. for 1 hour. The samples were then cooled to room temperature and the mixture was then acidified with 50 μl of formic acid followed by two consecutive chloroform:methanol (2:1) extractions. 500 μl of Chloroform:methanol (2:1) was added and the mixture thoroughly mixed by shaking. The plate was then centrifuged at 2,000 rpm for 5 min. The bottom chloroform phase was transferred to a new 2 mL 96 well plate and the remaining aqueous layer was extracted with another 250 μl of chloroform:methanol (2:1). The organic extracts were combined, and the solvent was evaporated to dryness by placing the plate under nitrogen. Extracts were then dissolved in 200 μl of acetonitrile/methanol (1:1). The plate was placed on a shaker for 30 minutes to ensure thorough mixing and dissolution of the extracted fatty acids. The plate was then centrifuged at 2000 RPM for 5 minutes. 80 μl of the samples were transferred to a new 96 well polypropylene plate for analysis on a LC-MS/MS for the following analytes: ^13C5-DGLA, ^13C5-AA, with ALA-d14 as the internal standard. Briefly describing the LC-MS/MS method: 20 μl of sample was injected onto a Poroshell 120 EC-C18 3.0×50 mm, 1.9 μm id column. Mobile phases were 80% acetonitrile containing 5 mM ammonium acetate for mobile phase A and 99.5% acetonitrile containing 5 mM ammonium acetate for mobile phase B. The LC gradient was a 3 min long method at a flow rate of 0.4 mL/minute consisting of 45% B at 0 to 0.5 min, followed by a 45% B to 100% B from 0.5 to 2.0 min; the system was then maintained at 100% B from 2.0 min to 2.5 min and returned to 45% B at 2.6 min and maintained until end of the method. The analyte peak areas were quantified by using the SCIEX Analyst software. To determine the degree of FADS1 inhibition, the in vivo FADS1 activity, POC, percent of inhibition, and in vivo IC50 values are calculated as described above for liver FADS1 activity measurement.

The conditions of assay [3]: C57BL/6 DIO mice; cited from earlier work.
For assay [4] the following is noted: HFD-fed DIO C57BL/6J mice; cited from earlier work.

By inhibition is commonly meant how much of the control response was suppressed. As a reminder, the IC50 is the concentration that gives 50% inhibition. For orientation: IC90 means the concentration at which the effect reaches the 90% level.

Structures are written as SMILES. Like-named read-outs stand apart in the source and are kept apart here.

Consider `COc1ccn2c(=O)c(-c3ccc(O[C@H](C)C#N)cc3)c(C(F)(F)F)nc2n1` [Compound E], for which, at FADS1 [1], the “Liver Avg % Conversion” value is reported as 78.7% and the inhibition at 30 mg/kg was determined as 5.8%. Also, on FADS1 [2], the “Plasma Avg % Conversion” value came out at 58.1%. The compound also yielded an inhibition at 30 mg/kg on FADS1 [2] (mouse) of 3.7%.
Consider `O=c1c(-c2ccc(OCC(F)(F)F)cc2)c(C(F)(F)F)nc2cc(CO)ccn12` [Compound D], for which, on FADS1 [1], the “Liver Avg % Conversion” value is 34.5% and the inhibition at 30 mg/kg was 58.7%. The “Plasma Avg % Conversion” value on FADS1 [2] is listed as 25.1%. On FADS1 [2] (mouse), 30 mg/kg produced 58.3% inhibition.
Regarding `O=c1c(-c2cnn(CC(F)(F)C(F)(F)F)c2)c(C(F)(F)F)nc2cc(OCF)ccn12` [Compound F], the “Free (unbound) in vivo IC95” value at FADS1 [2] (blood plasma, unbound plasma concentration) was determined as 0.0164 µM. Besides, the IC50 at FADS1 [2] (blood plasma, unbound plasma concentration, read-out: Free (unbound) in vivo IC50) was determined as 0.00562 µM. The IC90 on FADS1 [2] (mouse, blood plasma, unbound plasma concentration, read-out: Free (unbound) in vivo IC90) came to 0.0124 µM.
As for `Cc1c(C(=O)NN2CCCCC2)nn(-c2ccc(Cl)cc2Cl)c1-c1ccc(Cl)cc1` [rimonabant], in assay [3], the adipose tissue inflammation result is on record as “reduced adipose tissue inflammation”, the body weight entry is recorded as “reduce body weight” and the physical activity entry is on record as “increased physical activity only in the light cycle”.
Consider `COc1ccc2c(c1)c(CC(=O)O)c(C)n2C(=O)c1ccc(Cl)cc1` [indomethacin], for which, in assay [4], the body weight result was “reduce body weight” and the insulin sensitivity result was “improve insulin sensitivity”.
